The data set can be described thus: in vivo. The settings on record: dog; for AUC0-infinity / AUC(0-inf): po; for AUC(0-inf): AUC0-infinity. Also noted: species or system dogs. As for the experimental part:
The control food without ALA is fed throughout the study period. The analytical results of the foods fed in this study are in Table 1. A three period Latin square design was used to create a 3×3 factorial arrangement of treatments with dogs assigned to a group following a planned treatment assignment. […] Pharmacokinetic parameters are calculated using a non-compartmental model and analyzed using non-parametric tests of WinNonlin 4.1 in SAS v9.]. There was a significant effect of dose for all delivery methods (P<0.05). […]

Each structure is given as a SMILES string.

For `O=C(O)CCCCC1CCSS1` (racemic) [lipoic acid, dl-alpha-lipoic acid], the “elimination half life, co-manufactured food compared with capsule” value is “greater”; the “maximum serum concentrations, effect of delivery method” value is listed as “lower maximum serum concentrations”; the “total area under the curve, co-manufactured food compared with capsule” value is given as “greater”. Besides, for the setting “12.5 mg/kg”, the AUC0-infinity came out at 92215 ng·min/mL and the AUC(0-inf) is 1240 ng·h/mL. Under “25 mg/kg”, this compound had an AUC0-infinity of 227304 ng·min/mL and an AUC(0-inf) of 3580 ng·h/mL.

One may read the AUC(0-inf) as the area under the concentration-time curve extrapolated to infinity. Low values mean low exposure, high ones high exposure.

The values above are taken from patent US20170290801A1 (Hill's Pet Nutrition, Inc., priority 2009, published 2017).
